# Assay results published in patent US8673913B2, “SHP-2 phosphatase inhibitor” (Case Western Reserve University, priority 2009, dated 2014).
# What was measured:
# [1] = system: SHP-2 (WT and D61G) in mouse embryonic fibroblasts; assay: in vivo (immunocomplex) phosphatase assay: EGF-induced activation of SHP-2 in embryonic fibroblasts; format: cell-based; settings: 100 μM, last 1 hour; WT and SHP-2D61G/D61G cells
# Protocol: (§1) FIG. 5 illustrates in vivo effects of active compounds on SHP-2 activity and SHP-2-mediated signaling. (A) WT and mutant embryonic fibroblasts derived from activating mutation SHP-2 D61G knock-in mice were starved in serum-free medium overnight and were treated with the indicated compounds in the last 1 hour. Cells were then stimulated with EGF (20 ng/mL) for 10 min. Whole cell lysates were prepared and immunoprecipitated with anti-SHP-2 antibody. Immunoprecipitates were washed and then subjected to the in vitro phosphatase assay as described in the text. (B) Ba/F3 cells were deprived of IL-3 for 8 hours. The cells were treated with the indicated compounds 1 hour prior to the stimulation with IL-3 (2 ng/mL). Cells were harvested after the indicated periods of time. Whole cell lysates were prepared and examined for Erk activation with anti-phospho-Erk immunoblotting. The blot was striped and reprobed with anti-pan Erk antibody to examine protein loading.
# For the in vivo phosphatase assay, mouse embryonic fibroblasts were used to assess the activities of the test compounds in inhibiting epidermal growth factor (EGF)-induced activation of SHP-2 catalytic activity. WT and mutant fibroblasts derived from activating mutation of SHP-2 D61G knock-in mice (SHP-2D61G/D61G)10 were starved in serum-free medium overnight and the tested compounds (100 μM) were added in the last 1 hour. […]
# [2] = target: T1, SHP-2 PTP domain GST fusion protein (Homo sapiens, UniProt Q06124); assay: fluorescence titration (quenching of SHP-2 fluorescence); format: binding; set-up: Purified SHP-2 PTP domain GST-fusion protein was diluted into 20 mM Tris-HCl; made in house; settings: SHP-2 protein 3 μM, excitation 295 nm
# T1 sequence (Q06124 247-517 limits assumed): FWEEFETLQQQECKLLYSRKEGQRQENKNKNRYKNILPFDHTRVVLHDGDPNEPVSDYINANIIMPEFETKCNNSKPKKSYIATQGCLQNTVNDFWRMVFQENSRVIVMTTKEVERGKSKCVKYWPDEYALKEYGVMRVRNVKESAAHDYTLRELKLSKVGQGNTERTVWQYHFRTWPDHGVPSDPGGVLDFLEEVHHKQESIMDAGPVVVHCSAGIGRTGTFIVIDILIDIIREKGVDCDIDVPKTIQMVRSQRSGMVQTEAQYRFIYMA
# Protocol: For all experiments, Purified SHP-2 PTP domain GST-fusion protein was diluted into 20 mM Tris-HCl, pH 7.5. Fluorescence spectra were recorded with a Luminescence Spectrometer LS50 (Perkin-Elmer, Boston, Mass.). Titrations were performed by increasing the test compound concentration while maintaining the SHP-2 protein concentration at 3 μM. Contributions from background fluorescence of the inhibitors were accounted for by subtracting the fluorescence of the inhibitors alone from the of the protein-inhibitor solution. The excitation wavelength was 295 nm and fluorescence was monitored from 360 to 500 nm. All reported fluorescence intensities are relative values and are not corrected for wavelength variations in detector response.
# To validate that the active compounds identified were binding directly to the SHP-2 protein, we determined whether the active compounds directly interacted with the SHP-2 PTP domain using fluorescence quenching and taking advantage of the four tryptophans in the PTP domain, with Trp248 located 15 Å from the putative pY+5 pocket and Trp423 located 8 Å from the phosphatase active site. […] Therefore, their binding to SHP-2 protein could not be determined using this measurement. Thus, the fluorescence quenching experiments indicate that at least four active compounds identified do directly bind to SHP-2, thereby leading to their biological activities.
# [3] = system: Erk activation in Ba/F3 cells; assay: IL-3-induced Erk activation, anti-phospho-Erk immunoblotting; format: cell-based, murine; settings: Ba/F3 cells preincubated 1 hour
# Protocol: as §1
# We next tested whether the active compounds are effective in cells. […] Activation of SHP-2 in response to EGF stimulation was determined using the immunocomplex phosphatase assay. Compared to WT SHP-2, catalytic activity of SHP-2 D61G mutant in the mutant cells was increased both at the basal level and following EGF stimulation (FIG. 5A), consistent with previous studies. […]
# [4] = system: JMML patient bone marrow cells; assay: JMML bone marrow cells cultured with GM-CSF (MTS), FIG. 15; format: cell-based; settings: DMEM with GM-CSF
# Protocol: FIG. 15 illustrates inhibition of growth factor-independent colony formation of myeloid progenitors with SHP-2 activating mutation E76K by active compounds. JMML patient bone marrow cells were harvested from mutant mice with SHP-2 E76K mutation and were cultured in DMEM medium supplemented GM-CSF. DMSO was included at negative controls. Cell numbers were determined using the MTS assay. Shown are the results of a representative compound #324.
# [5] = system: H661 (SHP-2 N58S) and H596 lung cancer cells; assay: cell proliferation assay, lung cancer cells (MTS); format: cell-based; settings: indicated concentrations 48 hours; 10 μM time course
# Protocol: To test the effects of the active compounds on SHP-2-mediated cellular proliferation, Ba/F3, an IL-3 dependent hematopoietic cell line, mouse embryonic fibroblasts (MEFs), and H661 lung cancer cell line with SHP-2 activating mutation N58S were used for the assays. Cells were seeded into 96-well plates (2×10^4 cells/well) in the RPMI-1640 (for Ba/F3 cells) or DMEM (for MEFs and H661 cells) medium supplemented with 10% fetal bovine serum (FBS) and test compounds at various concentrations. For the Ba/F3 cell assay, recombinant mouse IL-3 (1 ng/mL) was included in the culture medium. Two days later, cell number was determined using the MTS cell proliferation kit (Promega Life Science, Madison, Wis.).
# FIG. 14 illustrates A). […] H661 and H596 cells were cultured in DMEM medium supplemented with active compounds at the indicated concentrations. DMSO was included at negative controls. Cell numbers were determined 48 hours later using the MTS assay. Shown are the results of a representative compound #324. B). […] H661 and H596 cells were cultured in DMEM medium supplemented with active compounds (10 μM) for the indicated periods of time. DMSO was included at negative controls. Cell numbers were determined using the MTS assay. Shown are the results of a representative compound #324.
smiles,measurement,setting,value
Cc1cc(C)c2c(c1)[nH]c1nnc(SCC(=O)NCc3cccs3)nc12 [#220],EGF-induced activation of SHP-2,[1],blocked
same,quenching of SHP-2 fluorescence,[2],strong quenching
same,Erk activation by IL-3,[3],suppressed
Cc1cc(C)c2[nH]c3nc(SCC(=O)Nc4cccc5ccccc45)nnc3c2c1 [#324],growth of JMML bone marrow cells with GM-CSF (FIG. 15),[4],inhibition
same,sensitivity of H661 (N58S) cells versus H596 cells,[5],more sensitive
NS(=O)(=O)c1ccc(CCNC(=O)c2ccc(Cn3c(=S)[nH]c4ccc(Br)cc4c3=O)cc2)cc1 [#216],EGF-induced activation of SHP-2,[1],blocked
same,quenching of SHP-2 fluorescence,[2],strong quenching
same,Erk activation by IL-3,[3],suppressed
